{"source": "patent US7087633B2", "about": "“Method for treating perinatal asphyxia in a human or animal neonate” (Universitair Medisch Centrum, priority 2000, dated 2006)", "key": {"neonatal rats [1]": {"system": "neonatal rats", "conditions": "cited from earlier work"}, "neonatal rats [2]": {"system": "neonatal rats", "conditions": "cited from earlier work", "remark": "listed apart in the source"}, "newborn piglets": {"system": "newborn piglets", "conditions": "cited from earlier work"}, "neuronal NOS": {"system": "neuronal NOS", "conditions": "injectable intraperitoneally; cited from earlier work"}, "[3]": {"system": "newborn Dutch store piglets subjected to HI", "conditions": "for piglets died post HI: ALLO n=10 (HI complications, 18 h), DFO n=10 (hypovolemic shock, 13 h), 2-IB n=7 (sepsis); for neurologic score / electrical brain activity (aEEG): 3 to 24 h post HI, versus PLAC, repeated ANOVA, all p<0.05", "method": "Following anaesthesia and instrumentation 37 newborn Dutch store piglets (1–3 days old) were subjected to HI by occluding both common carotid arteries with inflatable cuffs and reducing the fraction of inspired oxygen for 60 min. MRS was performed continuously before, during and up to 3 h after start of HI and repeated at 24 h post HI. During hypoxia FiO2 was reduced>on-line=until PCr/Pi had decreased to at least 25% of baseline values. Immediately after HI the piglets received either placebo (PLAC; n=10), ALLO (20 mg/kg iv; n=10), DFO (10 mg/kg iv; n=10) or 2-IB (150 μM i.v.; n=7). Before HI and from 3 to 24 h post HI the piglets were monitored using aEEG for electrical brain activity determination. A neurologic scoring system was used ranging from 4 (normal) to 0 (flat trace). For 1H-MRS a PRESS sequence with CHESS water suppression was used to define a 1.7 ml periventricular voxel (TR 6 s, TE 144 ms, and nt=32 or 64). 31 P— MRS was done using a 4 cm-diameter surface coil for excitation and detection (TR 10 s, nt=32). Peak amplitudes of PCr, Pi, Lac and NAA were determined with time domain fitting procedures (VARPRO). Paired t-tests were used to compare measurements at 24 h versus baseline; repeated ANOVA served to monitor for trends between treatment groups."}, "[4]": {"system": "brain regions at risk after HI (hippocampus, cortex, striatum and cerebellum)", "assay": "Histological analysis and nitrotyrosylation immunohistochemistry of brain at 24 h post HI", "format": "in vivo, piglet"}, "crossbred piglets": {"system": "crossbred piglets", "assay": "Postnatal growth experiments in newborn piglets", "format": "in vivo, piglet", "method": "A study in newborn piglets was performed to identify the potential effects of 2-iminobiotin on postnatal growth. Data from 138 crossbred piglets (originating from 28 litters) were collected on a commercial, Dutch pig farm over the period from 21 Jul. 2001 to 6 May 2003."}, "[5]": {"system": "free radical-induced brain damage in newborns", "conditions": "pilot study in newborn babies and experimental studies; cited from earlier work"}, "[6]": {"conditions": "24 h post HI versus baseline, ALLO 20 mg/kg iv, DFO 10 mg/kg iv, 2-IB 150 μM i.v."}, "[7]": {"conditions": "Least Square Means, total 1.1 mg/kg in 24 h after birth, n=67"}, "[8]": {"conditions": "during the first 10 days of life, n=67"}}, "note": "Entries after “also recorded” stand apart in the source; their conditions may differ."}
{"smiles": "N=C(N)NN", "note": "[aminoguanidine]", "values": [{"measurement": "infarct volumes", "setting": "neonatal rats [1]", "value": "reduced infarct volumes"}]}
{"smiles": "COC(=O)[C@@H](N)CCCNC(=N)N[N+](=O)[O-]", "note": "[L-NAME, L-nitro-arginine methyl ester]", "values": [{"measurement": "neuroprotection", "setting": "neonatal rats [2]", "value": "neuroprotective"}]}
{"smiles": "N=C(NCCC[C@H](N)C(=O)O)N[N+](=O)[O-]", "note": "[NNLA, N^G-nitro-L-arginine]", "values": [{"measurement": "cerebral energy status during and after hypoxia-ischemia", "setting": "newborn piglets", "value": "compromised"}]}
{"smiles": "O=[N+]([O-])c1cccc2cn[nH]c12", "note": "[7-nitroindazole]", "values": [{"measurement": "apoptosis", "setting": "neuronal NOS", "value": "effective in reducing apoptosis"}, {"measurement": "levels of citrulline", "setting": "neuronal NOS", "value": "reducing the levels of citrulline"}]}
{"smiles": "CC(=O)N(O)CCCCCNC(=O)CCC(=O)N(O)CCCCCNC(=O)CCC(=O)N(O)CCCCCN", "note": "[DFO, deferoxamine, reference compound]", "values": [{"measurement": "piglets died post HI", "setting": "[3]", "value": 1, "unit": "piglet"}]}
{"smiles": "N=C1N[C@H]2[C@H](CS[C@H]2CCCCC(=O)O)N1", "note": "[2-IB, 2-iminobiotin]", "values": [{"measurement": "neurologic score / electrical brain activity (aEEG)", "setting": "[3]", "value": "significant difference; also recorded: preserved electrical brain activity"}, {"measurement": "Lac/NAA", "setting": "[3]; [6]", "value": "identical to baseline values; also recorded: prevented increment"}, {"measurement": "PCr/Pi (cerebral energy status)", "setting": "[3]; [6]", "value": "identical to baseline values; also recorded: preserved completely"}, {"measurement": "piglets died post HI", "setting": "[3]", "value": 1, "unit": "piglet"}, {"measurement": "more effective than treatment with allopurinol and/or deferoxamine", "setting": "[3]; in vivo studies involving piglets, versus allopurinol and/or deferoxamine", "value": "about 25%"}, {"measurement": "more effective than placebo treatment in preventing and/or treating the effects", "setting": "[3]; in vivo studies involving piglets, versus placebo", "value": "about 60%"}, {"measurement": "alive cells in brain regions at risk after HI", "setting": "[4]; histology", "value": "more alive cells"}, {"measurement": "necrosis", "setting": "[4]; histology", "value": "less necrosis"}, {"measurement": "structural architecture", "setting": "[4]; histology", "value": "better preserved structural architecture"}, {"measurement": "nitrotyrosylation staining in the affected areas", "setting": "[4]; immunohistochemistry", "value": "no staining; also recorded: less nitrotyrosylation staining"}, {"measurement": "Growth at 6 weeks", "setting": "crossbred piglets; [7]", "value": 250, "unit": "gram/day"}, {"measurement": "Growth at 10 days", "setting": "crossbred piglets; [7]", "value": 208, "unit": "gram/day"}, {"measurement": "Growth at weaning", "setting": "crossbred piglets; [7]", "value": 248, "unit": "gram/day"}, {"measurement": "piglets died (number)", "setting": "crossbred piglets; [8]", "value": 9, "unit": "piglets"}, {"measurement": "piglets died (percentage of group)", "setting": "crossbred piglets; [8]", "value": 13, "unit": "%"}, {"measurement": "Pathology and histology: adverse effects of treatment", "setting": "crossbred piglets; in vivo", "value": "no adverse effects"}]}
{"smiles": "Oc1ncnc2[nH]ncc12", "note": "[ALLO, allopurinol, reference compound]", "values": [{"measurement": "neurologic score / electrical brain activity (aEEG)", "setting": "[3]", "value": "significant difference"}, {"measurement": "PCr/Pi (cerebral energy status)", "setting": "[3]; [6]", "value": "prevented partly"}, {"measurement": "piglets died post HI", "setting": "[3]", "value": 1, "unit": "piglet"}, {"measurement": "free radical-induced brain damage in newborns", "setting": "[5]", "value": "reduce free radical-induced brain damage in newborns to some extend"}]}
